In ChEMBL document CHEMBL1201862, “PubChem BioAssay data set” (2004):
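Cultured in 96-well plates, cells were exposed to test compound for 48 hours across five concentrations. GI50 = concentration required for 50% inhibition of growth.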 Active and inactive are the calls of the source. No stated cut-off is given here; in the data, active = GI50 up to about 1.1 µM and inactive = higher.

Experiments:
Experiment in all cases: growth of human tumour cells (NCI), 48 h
HT-29 = system: HT-29
OVCAR-5 = system: OVCAR-5
SNB-75 = system: SNB-75
SK-OV-3 = system: SK-OV-3
U-251 = system: U-251
SK-MEL-2 = system: SK-MEL-2
OVCAR-4 = system: OVCAR-4
SN12C = system: SN12C
KM12 = system: KM12
LOX IMVI = system: LOX IMVI
HCT-15 = system: HCT-15
Malme-3M = system: Malme-3M
DU-145 = system: DU-145
PC-3 = system: PC-3
NCI-H522 = system: NCI-H522
K562 = system: K562
MDA-MB-231 = system: MDA-MB-231
CCRF-CEM = system: CCRF-CEM
RPMI-8226 = system: RPMI-8226
MOLT-4 = system: MOLT-4

SMILES | GI50 (HT-29) | GI50 (OVCAR-5) | GI50 (SNB-75) | GI50 (SK-OV-3) | GI50 (U-251) | GI50 (SK-MEL-2) | GI50 (OVCAR-4) | GI50 (SN12C) | GI50 (KM12) | GI50 (LOX IMVI) | GI50 (HCT-15) | GI50 (Malme-3M) | GI50 (DU-145) | GI50 (PC-3) | GI50 (NCI-H522) | GI50 (K562) | GI50 (MDA-MB-231) | GI50 (CCRF-CEM) | GI50 (RPMI-8226) | GI50 (MOLT-4)
N#CCCC1(CCC#N)CCCCCCC(CCC#N)(CCC#N)C(=O)C1=O | > 100 µM (inactive) | > 100 µM (inactive) | > 100 µM (inactive) | > 100 µM (inactive) | > 100 µM (inactive) | > 100 µM (inactive) | > 100 µM (inactive) | 58.2 µM (inactive) | > 100 µM (inactive) | > 100 µM (inactive) | > 100 µM | > 100 µM (inactive) | > 100 µM (inactive) | > 100 µM (inactive) | > 100 µM (inactive) | > 100 µM (inactive) | – | – | – | –
COc1ccc(Nc2nc3ccccc3n3cccc23)cc1OC | 7.74 µM (inactive) | 32.7 µM (inactive) | – | 27 µM (inactive) | 16.9 µM (inactive) | 19.2 µM (inactive) | – | – | 13.1 µM (inactive) | 14.4 µM (inactive) | 13.6 µM | 18.9 µM (inactive) | 17.1 µM (inactive) | 11.7 µM (inactive) | 16 µM (inactive) | 21 µM (inactive) | 15.3 µM (inactive) | 1.05 µM (active) | 11.8 µM (inactive) | 9.98 µM (inactive)
CCOC(=O)COc1cc(-c2ccccc2)nc2cc(F)ccc12 | > 100 µM (inactive) | > 100 µM (inactive) | > 100 µM (inactive) | > 100 µM (inactive) | > 100 µM (inactive) | > 100 µM (inactive) | 42 µM (inactive) | > 100 µM (inactive) | > 100 µM (inactive) | > 100 µM (inactive) | > 100 µM | > 100 µM (inactive) | > 100 µM (inactive) | > 100 µM (inactive) | – | > 100 µM (inactive) | > 100 µM (inactive) | 85.7 µM (inactive) | > 100 µM (inactive) | > 100 µM (inactive)
O=C(Cn1c(-c2ccccc2)cc2ccccc21)N1CCOCC1 | > 100 µM (inactive) | > 100 µM (inactive) | – | > 100 µM (inactive) | 45 µM (inactive) | > 100 µM (inactive) | > 100 µM (inactive) | > 100 µM (inactive) | > 100 µM (inactive) | > 100 µM (inactive) | > 100 µM | > 100 µM (inactive) | > 100 µM (inactive) | 61.1 µM (inactive) | > 100 µM (inactive) | > 100 µM (inactive) | 34.2 µM (inactive) | > 100 µM (inactive) | > 100 µM (inactive) | > 100 µM (inactive)
Cc1ccc(S(=O)(=O)N2C[C@@H]3CC[C@]4(CO[Si](C)(C)C(C)(C)C)N[C@@H](c5ccccc5)[C@H]2[C@H]34)cc1 | 13.2 µM (inactive) | 77.8 µM (inactive) | – | 68.1 µM (inactive) | 46.5 µM (inactive) | 48.2 µM (inactive) | 26.5 µM (inactive) | 19.6 µM (inactive) | 26.5 µM (inactive) | 28 µM (inactive) | 24.7 µM | 18.6 µM (inactive) | 45 µM (inactive) | 18.2 µM (inactive) | 11.6 µM (inactive) | 9.02 µM (inactive) | 28.1 µM (inactive) | 43.2 µM (inactive) | 7.87 µM (inactive) | 19 µM (inactive)
C/C=C(/C)c1cnc(CC(C)C)c(=O)[nH]1 | > 100 µM (inactive) | > 100 µM (inactive) | > 100 µM (inactive) | > 100 µM (inactive) | > 100 µM (inactive) | > 100 µM (inactive) | > 100 µM (inactive) | > 100 µM (inactive) | > 100 µM (inactive) | > 100 µM (inactive) | > 100 µM | – | > 100 µM (inactive) | > 100 µM (inactive) | – | > 100 µM (inactive) | > 100 µM (inactive) | > 100 µM (inactive) | 0.35 µM (active) | > 100 µM (inactive)
COc1ccc(-n2c3c(c4cc(O)ccc42)C(=O)c2ccccc2C3=O)cc1 | 3.94 µM (inactive) | 6.04 µM (inactive) | – | 0.404 µM (active) | 0.931 µM (active) | 5.75 µM (inactive) | 17.4 µM (inactive) | 2.3 µM (inactive) | 2.13 µM (inactive) | 4.71 µM (inactive) | > 100 µM | 36.2 µM (inactive) | 19.1 µM (inactive) | 5.32 µM (inactive) | 16.6 µM (inactive) | 30.7 µM (inactive) | 2 µM (inactive) | – | 13.8 µM (inactive) | 7.66 µM (inactive)
Cc1cn(CC(=S)NCCc2c[nH]c3ccccc23)c(=O)[nH]c1=O | 31.4 µM (inactive) | 33 µM (inactive) | – | > 100 µM (inactive) | > 100 µM (inactive) | > 100 µM (inactive) | 48.8 µM (inactive) | > 100 µM (inactive) | > 100 µM (inactive) | > 100 µM (inactive) | > 100 µM | 69.5 µM (inactive) | > 100 µM (inactive) | 77.1 µM (inactive) | – | 39.1 µM (inactive) | > 100 µM (inactive) | 44.3 µM (inactive) | 46.5 µM (inactive) | 12.8 µM (inactive)
CC(/C=C/c1ccc([N+](=O)[O-])o1)=N/N1CC(CN2CCOCC2)OC1=O (stereo unspecified) | 31.4 µM (inactive) | 47.3 µM (inactive) | – | 52.2 µM (inactive) | 28.5 µM (inactive) | 16.9 µM (inactive) | 14 µM (inactive) | 25.4 µM (inactive) | 42.8 µM (inactive) | 24.9 µM (inactive) | 16.5 µM | 14.7 µM (inactive) | 19.9 µM (inactive) | 14 µM (inactive) | – | 16.9 µM (inactive) | 23.6 µM (inactive) | 0.771 µM (active) | 9.64 µM (inactive) | 22.9 µM (inactive)
NCCCCN(CCCN)Cc1ccc2ccccc2c1 | 23.3 µM (inactive) | 28.8 µM (inactive) | 2.94 µM (inactive) | 96.4 µM (inactive) | 59 µM (inactive) | – | 39.4 µM (inactive) | 12.9 µM (inactive) | 27.4 µM (inactive) | 29.2 µM (inactive) | > 100 µM | 51.8 µM (inactive) | 66.7 µM (inactive) | – | 13.5 µM (inactive) | > 100 µM (inactive) | 32.4 µM (inactive) | 27.1 µM (inactive) | > 100 µM (inactive) | 34.8 µM (inactive)
COC1=C(OC)C(=O)C(Cc2c(Cl)nc3sccn23)=C(C)C1=O | 14.6 µM (inactive) | 16.9 µM (inactive) | – | 10.1 µM (inactive) | 12.6 µM (inactive) | 14.1 µM (inactive) | 2.96 µM (inactive) | 13.4 µM (inactive) | 10.4 µM (inactive) | 2.96 µM (inactive) | 12.6 µM | 1.85 µM (inactive) | 13.5 µM (inactive) | 14.2 µM (inactive) | 6.15 µM (inactive) | 11 µM (inactive) | 2.38 µM (inactive) | 2.02 µM (inactive) | 2.34 µM (inactive) | 1.85 µM (inactive)
O=S(=O)(c1ccccc1)C1(CCC2OCCO2)C=CC2(CC1)OCCO2 (stereo unspecified) | > 100 µM (inactive) | > 100 µM (inactive) | > 100 µM (inactive) | > 100 µM (inactive) | > 100 µM (inactive) | – | > 100 µM (inactive) | > 100 µM (inactive) | – | – | > 100 µM | > 100 µM (inactive) | > 100 µM (inactive) | > 10 µM (inactive) | – | > 100 µM (inactive) | > 100 µM (inactive) | > 100 µM (inactive) | > 100 µM (inactive) | > 100 µM (inactive)
C[C@H]1CC[C@@H]2[C@@H](C)C[C@H]3[C@@H]4C(C)(C)OC(=O)[C@]4(C)C(=O)[C@@]23C1=O | > 100 µM (inactive) | > 100 µM (inactive) | > 100 µM (inactive) | > 100 µM (inactive) | – | – | > 100 µM (inactive) | > 100 µM (inactive) | > 100 µM (inactive) | > 100 µM (inactive) | > 100 µM | > 100 µM (inactive) | > 100 µM (inactive) | – | 50.7 µM (inactive) | > 100 µM (inactive) | 42.5 µM (inactive) | > 100 µM (inactive) | > 100 µM (inactive) | > 100 µM (inactive)
CC(C)(C)C1CCC2c3c([nH]c4ccccc34)C3C(=O)N(c4ccc(C(=O)O)cc4)C(=O)C3C2C1 (stereo unspecified) | 12.9 µM (inactive) | 21.9 µM (inactive) | – | 17.5 µM (inactive) | 13.4 µM (inactive) | 14.9 µM (inactive) | – | 12.8 µM (inactive) | – | 14.5 µM (inactive) | 12 µM | 14.9 µM (inactive) | 17.5 µM (inactive) | 13.4 µM (inactive) | 18.9 µM (inactive) | 4.43 µM (inactive) | 15.5 µM (inactive) | 3.69 µM (inactive) | 20 µM (inactive) | 0.1 µM (active)
N=c1oc2ccc(Cl)cc2cc1C(=O)NC1CCCCC1 | > 100 µM (inactive) | > 100 µM (inactive) | 84.5 µM (inactive) | > 100 µM (inactive) | > 100 µM (inactive) | 47.6 µM (inactive) | > 100 µM (inactive) | > 100 µM (inactive) | 47.6 µM (inactive) | 53 µM (inactive) | 37.8 µM | – | 73.8 µM (inactive) | 68.5 µM (inactive) | – | 66.7 µM (inactive) | > 100 µM (inactive) | 33.7 µM (inactive) | 59.3 µM (inactive) | 44.2 µM (inactive)
Cc1ccc(S(=O)(=O)N2CCSCCSCCN(S(=O)(=O)c3ccc(C)cc3)CCN(S(=O)(=O)c3ccc(C)cc3)CC2)cc1 | > 100 µM (inactive) | > 100 µM (inactive) | – | > 100 µM (inactive) | > 100 µM (inactive) | > 100 µM (inactive) | > 100 µM (inactive) | > 100 µM (inactive) | > 100 µM (inactive) | > 100 µM (inactive) | > 100 µM | > 100 µM (inactive) | > 100 µM (inactive) | > 100 µM (inactive) | > 100 µM (inactive) | > 100 µM (inactive) | > 100 µM (inactive) | > 100 µM (inactive) | > 100 µM (inactive) | > 100 µM (inactive)
